This note sets out measurements from patent publication US9795602B2, “Polycyclic-carbamoylpyridone compounds and their pharmaceutical use” (Gilead Sciences, Inc., priority 2014, dated 2017).

Read-outs that look alike come from different tables or passages of the source.

The target of one series is human PXR (Homo sapiens (Human), UniProt O75469). Briefly: Human PXR activation assay (luciferase reporter, DPX2 cells). Type of series: cell-based. Particulars: 15 uM; DPX2 cells; % Emax relative to rifampicin, adjusted for DMSO background. How it is done: (§1) Luciferase Reporter Gene Assay.
(§2) A stably transformed tumor cell line (DPX2) was plated on 96-well microtiter plates. […]. The number of viable cells was determined and the reporter gene activity was assessed. […]

In another series the test system is MT4 cells. Nature of the series: Cytotoxicity (CC50) in MT4 cells, mock-infected. Type of series: cell-based. Particulars: 5 days. An outline of the steps: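 Uninfected MT4 cells, 2000 per well, incubated with compound 5 days at 37 °C. Viability by CellTiter-Glo luminescence after 2–3 min lysis at room temperature.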
The next series has as its target OCT2 (Homo sapiens (Human), UniProt O15244). Briefly: OCT2 inhibition assay (14C-TEA uptake, OCT2-transfected MDCKII cells). Type of series: cell-based. Here is the method:
MDCKII cells were maintained in minimal essential medium (MEM) with 1% Pen/Strep, 10% fetal bovine serum, and 0.25 mg/mL hygromycin B in an incubator set at 37° C., 90% humidity and 5% CO2. 24 hours prior to assay, media containing 5 mM sodium butyrate were added to MDCKII cells in flasks, and cells were grown to 80-90% confluence. On assay day, cells were trypsinized and resuspended in Krebs-Henseleit Buffer (KHB), pH 7.4 at […]. Cells were preincubated for 15 min in assay plate before addition of test compound or substrate.
Test compounds were serially diluted in DMSO and then spiked (2 μL) into in 0.4 mL KHB buffer containing wild-type or OCT2-transfected cells and incubated for 10 minutes. Assay was initiated with the addition of 0.1 mL of 100 μM ^14C-TEA in KHB buffer (20 μM final concentration after mixing). The concentration of TEA is based on the Km. After 10 minutes of incubation, the assay mixture was quenched with addition of 0.5 mL of ice-cold 1×PBS buffer. Samples were then centrifuged at 1000 rpm for 5 min and supernatants were removed. Wash steps were repeated four times with ice-cold PBS. Finally, the cell pellets were lysed with 0.2N NaOH and let sit at room temperature for at least 30 min to ensure complete lysis. Samples were then counted on liquid scintillation counter and dpm counts were used to perform the following calculations. The % inhibition was calculated as follows: % inhibition=[1−{[OCT2]i−[WT]ni}/{[OCT2]ni−[WT]ni}]*100 where, [OCT2]i represents the dpm count in the presence of test compound for either OCT2 cells, […] of test compound for OCT2 cells and [WT]ni represents the dpm count in the absence of test compound for wild type cells, respectively.

Another series relates to HIV-IIIb. Nature of the series: Antiviral assay in MT4 cells. Type of series: cell-based. Particulars: read-out: EC50. An outline of the steps: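 MT4 cells infected with HIV-IIIb (0.004 m.o.i.) or mock-infected, then plated at 2000 cells per well with compound. After 5 days at 37 °C, cell viability read by CellTiter-Glo chemiluminescence.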
The target in another series is PXR (NR1I2) (Homo sapiens (Human), UniProt O75469). Briefly: Human PXR activation assay (luciferase reporter, DPX2 cells). Type of series: cell-based. Particulars: human; 15 uM; DPX2 cells; % Emax relative to rifampicin, adjusted for DMSO background; read-out: PXR % inh at 15 uM (adjusted). Here is the method: as §1, §2
For orientation: A reporter such as luciferase makes a cellular process visible.

Series [1] in a line: Plasma protein binding (equilibrium dialysis). Type of series: in vitro ADME. Particulars: human, plasma (sodium EDTA) dialysed against buffer; 2 μM in plasma vs. buffer, 24 hours at 37° C.; read-out: % Free HP/Buffer. Here is the method:
Plasma protein binding was determined using a HTD96b equilibrium dialyzer with a plate base, stainless steel pressure plate and Teflon bock. 9 Teflon bars, labeled sequentially from A through I, were assembled with two stainless steel connecting rods. Membranes were placed between two Teflon bars, with the membrane placed approximately 2 mm below the top edge of the bar and the lower membrane edge overlapped the bottom of all wells. The membrane was soaked for about 20 minutes in water, about 20 minutes in ethanol (30/70 v/v) and rinsed with water three times to remove the ethanol. It was soaked in PBS for at least 30 minutes. Plasma in sodium EDTA (Bioreclamation or equivalent) was used. The Plasma (not pH-adjusted) was stored at −80° C. and thawed at room temperature before use. The stock solution of the compounds tested was at 200 μM in DMSO. The quench solution used was 50 nM of an internal standard in 100% ACN. To prepare a 2 μM solution of the compound tested in plasma, 5 μL of a 200 μM stock solution was added to 495 μL of blank plasma. 100 μL plasma was added with 2 μM of test compound into one side of the well. 100 μL of buffer (for plasma vs. buffer) was added into another side of the well. The 96-well plate was covered using an adhesive sealing film and incubated for 24 hours at 37° C. under slow rotation. This procedure was replicated for each compound. 50 μL of plasma sample was put into a 96 well plate, 50 μL of buffer was added. 50 μL of buffer was put into a 96 well plate. 50 μL of plasma was added. 300 μL of quench solution was added and the plate sealed and shaken for 15 minutes. The material was centrifuged for 30 minutes at 3000 RPM and ˜250 μL was transferred into a short plate. The samples were analyzed by LC/MS. The resulting data is shown in the last row of Table 3 as “% Free” which corresponds to the percentage of compound not protein bound.
On the technique in general: In equilibrium dialysis free small molecules cross a membrane that holds back macromolecules.

Series [2] is described as follows: Pharmacokinetics after intravenous infusion to male SD rats. Type of series: in vivo. Particulars: Sprague-Dawley, plasma, rat, IV infusion 0.5 mg/kg. Here is the method:
(§3) Pharmacokinetic analysis was performed on compounds 25b and 39 following intravenous or oral administration to rats.
(§4) The test compounds were formulated in 5% Ethanol, 55% PEG 300, and 40% water at 0.1 mg/mL for IV infusion and for oral dosing.
(§5) Each dosing group consisted of 3 male, Sprague-Dawley rats. At dosing, the animals weighed an average of 0.25 kg. The animals were fasted overnight prior to dose administration and up to 4 hr after dosing.
(§6) For the IV infusion group, the test article was administered by intravenous infusion over 30 min. The rate of infusion was adjusted according to the body weight of each animal to deliver a dose of 0.5 mg/kg. For the oral dosing group, the test article was administered by oral gavage at 5 mL/kg for a dose of 0.5 mg/kg.
For pharmacokinetic analysis of intravenously administered compounds, serial venous blood samples (approximately 0.3 mL each) were taken from each animal at 0, 0.250, 0.483, 0.583, 0.750, 1.50, 3.00, 6.00, 8.00, 12.0, 24.0, 48 and 72 hours after dosing. The blood samples were collected into Vacutainer™ tubes containing EDTA-K2 as the anti-coagulant and were immediately placed on wet ice pending centrifugation for plasma. An LC/MS/MS method was used to measure the concentration of the test compound in plasma. An aliquot of 50 μL of each plasma sample was added to a clean 96 well plate, and 200 μL of cold acetonitrile/internal standard solution (ACN)/(ISTD) was added. After protein precipitation, an aliquot of 110 μL of the supernatant was transferred to a clean 96-well plate and diluted with 300 μL of water. An aliquot of 10 μL of the above solution was injected into a ABSciex API-4000 triple quadrupole LC/MS/MS system utilizing a HyPurity C18 HPLC column (30×2.1 mm, 3μ), from Thermo-Hypersil (Part #22103-032130). An Agilent 1200 series binary pump (P/N G1312A Bin Pump) was used for elution and separation, and an HTS Pal autosampler (LEAP Technologies, Carrboro, N.C.) was used for sample injection. A API-4000 triple quadrupole mass spectrometer was utilized in multiple reaction monitoring mode (Applied Biosystems, Foster City, Calif.). Liquid chromatography was performed using two mobile phases: mobile phase A contained 0.1% formic acid and 1% isopropylamine in aqueous solution, and mobile phase B contained […]. Non-compartmental pharmacokinetic analysis was performed on the plasma concentration-time data. The resulting data are shown in the first three columns of Table 2. In Table 2, Cl refers to clearance, which characterizes the rate at which drug is removed from plasma. The lower the clearance of a drug is, the longer the elimination half-life is in the body. Vss refers to the steady state volume of distribution and indicates how well a drug is distributed into the tissues. The larger the Vss is, the longer the elimination half-life is in the body. MRT refers to mean residence time, which is a measure of the average time molecules exist in the body.

The next series deals with HIV-1 E92Q/N155H. Type of series: cell-based. Particulars: MT2 cells; mean EC50 mutant / mean EC50 wt. Here is the method:
(§7) For the antiviral assay utilizing MT-2 cells, 50 μL of 2× test concentration of 3-fold serially diluted compound in culture medium with 10% FBS was added to each well of a 96-well plate (9 concentrations) in triplicate. MT-2 cells were infected with wild-type or mutant variants of HIV-1 for 3 hours using a volume of viral inoculum determined to produce 90% cell killing. Fifty microliters of infected cell suspension in culture medium with 10% FBS (˜1.5×10^4 cells) was then added to each well containing 50 μL of serially diluted compound. The plates with HIV-infected cultures were then incubated at 37° C. for 5 days in the presence of the tested compounds. After 5 days of incubation, 100 μL of CellTiter-Glo™ Reagent (catalog # G7571, Promega Biosciences, Inc., Madison, Wis.) was added to each well. Cell lysis was carried out by incubating at room temperature for 10 min followed by a chemiluminescence read-out.
(§8) The chemiluminescence readout from the 10-point antiviral dose response was analyzed directly by curve fitting with equation (I) to determine the EC50.
(§9) where y=Cell Survival, M=maximum cell survival enabled by drug protection, H=baseline cell survival without drug protection, n=Hill coefficient of the antiviral dose response, m=Hill coefficient of the cytotoxicity dose response, and [I]=inhibitor concentration.
(§10) EC50 values (mean±standard deviation) were calculated from at least three independent experiments performed in triplicate. The fold-change in antiviral activity of tested compounds was calculated as a ratio of the mean EC50 for each mutant virus divided by the mean EC50 of the control WT virus.

The next series has as its system HIV-1 G140S/Q148R. Type of series: cell-based. Particulars: MT2 cells; mean EC50 mutant / mean EC50 wt. Here is the method:
as §7, §8, §9, §10

Another series relates to HIV-1 E138K/Q148K. Type of series: cell-based. Particulars: MT2 cells; mean EC50 mutant / mean EC50 wt. Here is the method: as §7, §8, §9, §10
In another series the test system is HIV-1 N155H/Q148R. Type of series: cell-based. Particulars: MT2 cells; mean EC50 mutant / mean EC50 wt. Here is the method: as §7, §8, §9, §10
The nature of series [3]: Pharmacokinetics after oral administration to male SD rats. Type of series: in vivo. Particulars: Sprague-Dawley, plasma, rat, oral gavage 0.5 mg/kg, solution, read-out: % F (solution). Here is the method:
as §3, §4, §5, §6
For pharmacokinetic analysis of orally administered compounds, serial venous blood samples (approximately 0.3 mL each) were taken from each animal at time points of 0, 0.25, 0.50, 1.0, 2.0, 4.0, 6.0, 8.0, 12.0 24.0, 48.0 and 72 hours after dosing. Blood samples were collected, prepared and analyzed in a similar way to the intravenous studies described above. Non-compartmental pharmacokinetic analysis was performed on the plasma concentration-time data. In Table 2, F (%) refers to oral bioavailability.

The subject of another series is wild-type HIV-1. Briefly: Antiviral assay in MT-2 cells, wild-type HIV-1. Type of series: cell-based. Particulars: Human immunodeficiency virus 1, 120 h; MT2 cells, wild-type HIV-1, 5 days; read-out: wt. How it is done:
as §7, §8, §9, §10

PXR (NR1I2), sequence (O75469 whole entry): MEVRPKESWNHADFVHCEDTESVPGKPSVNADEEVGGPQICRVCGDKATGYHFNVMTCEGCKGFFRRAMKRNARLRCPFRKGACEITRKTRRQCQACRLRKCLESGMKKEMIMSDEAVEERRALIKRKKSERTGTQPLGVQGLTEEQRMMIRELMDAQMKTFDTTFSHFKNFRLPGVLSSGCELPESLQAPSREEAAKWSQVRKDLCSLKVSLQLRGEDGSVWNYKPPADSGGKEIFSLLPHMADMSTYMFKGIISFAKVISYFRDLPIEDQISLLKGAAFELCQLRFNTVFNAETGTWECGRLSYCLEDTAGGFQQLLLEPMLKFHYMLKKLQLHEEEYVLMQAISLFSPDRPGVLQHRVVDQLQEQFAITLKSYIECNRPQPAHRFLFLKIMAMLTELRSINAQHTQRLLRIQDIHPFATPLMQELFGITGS
human PXR, sequence (O75469 whole entry): as above
OCT2, sequence (O15244 whole entry): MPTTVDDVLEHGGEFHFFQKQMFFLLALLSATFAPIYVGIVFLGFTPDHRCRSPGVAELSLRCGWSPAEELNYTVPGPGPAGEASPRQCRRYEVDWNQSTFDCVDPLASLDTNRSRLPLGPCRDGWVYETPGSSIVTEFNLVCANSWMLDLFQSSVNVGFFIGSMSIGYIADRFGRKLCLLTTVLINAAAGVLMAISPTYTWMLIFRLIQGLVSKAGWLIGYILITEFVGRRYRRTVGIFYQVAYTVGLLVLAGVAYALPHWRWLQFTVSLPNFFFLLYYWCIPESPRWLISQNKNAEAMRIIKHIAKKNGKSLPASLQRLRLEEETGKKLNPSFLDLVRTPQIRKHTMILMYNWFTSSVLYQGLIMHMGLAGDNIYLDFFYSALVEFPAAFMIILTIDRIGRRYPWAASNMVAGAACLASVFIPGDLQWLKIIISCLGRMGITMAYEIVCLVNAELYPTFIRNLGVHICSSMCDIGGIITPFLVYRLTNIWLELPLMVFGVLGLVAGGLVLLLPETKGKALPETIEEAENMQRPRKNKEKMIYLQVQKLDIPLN

As a reminder, the CC50 is the concentration that lowers cell viability or growth by half. A high value points to lower toxicity to the cells. One may read the IC50 as the concentration that inhibits the measured activity by half. For the compound `O=C(NCc1c(F)cc(F)cc1F)c1cn2c(c(O)c1=O)C(=O)N(CC(F)(F)F)[C@@H]1COCC[C@@H]12` [Compound 32], the “PXR % inh at 15 uM (adjusted)” value on human PXR was found to be 19%. In the series with MT4 cells, this compound registered a CC50 of 57.1 µM. In addition, the IC50 at OCT2 is 10 µM. Also, in the series on HIV-IIIb, the EC50 amounted to 0.0038 µM.

For the compound `CN1C(=O)c2c(O)c(=O)c(C(=O)NCc3c(F)cc(F)cc3F)cn2[C@@H]2CCCC[C@@H]21` [Compound 4], the inhibition at 24 h, 15 µM on PXR (NR1I2) came out at 65%. The half-maximal cytotoxic concentration (CC50) in the series with MT4 cells was 10.5 µM. For the same compound, the EC50 with HIV-IIIb (MT4 cells, HIV-IIIb, 5 days) was 0.00253 µM.

In general, MRT refers to the average time that molecules of a dose stay in the body. Usually clearance stands for a measure of how efficiently the substance is removed, as volume per time. A low value points to a low capacity for elimination. `C[C@@H]1CCO[C@H]2Cn3cc(C(=O)NCc4ccc(F)cc4F)c(=O)c(O)c3C(=O)N12` [Dolutegravir, reference compound]: the fraction unbound at 24 h, 2 µM in [1] came to 0.01. For the same compound, in [2], the MRT amounted to 12.4 h and the clearance is 0.167 mL/min/kg. Also, the Vd in series [2] (read-out: Vss) is 0.17 L/kg. In the series on HIV-1 E92Q/N155H, the “Resistance fold shift E92Q/N155H vs. wild type” value was 1.9 fold shift. Further, in the series on HIV-1 G140S/Q148R, the “Resistance fold shift G140S/Q148R vs. wild type” value was determined as 3.7 fold shift. The “Resistance fold shift E138K/Q148K vs. wild type” value with HIV-1 E138K/Q148K is listed as 8.2 fold shift. Besides, in the series on HIV-1 N155H/Q148R, the “Resistance fold shift N155H/Q148R vs. wild type” value was determined as 2.5 fold shift. Moreover, the bioavailability in [3] turned out to be 84%. The EC50 in the series with wild-type HIV-1 worked out at 0.0017 µM.
